{"source": "patent US20040208833A1", "about": "“Novel fluticasone formulations” (Elan Pharma International Ltd., priority 2003, published 2004)", "origin": "cited, not measured here", "key": {"[1]": {"assay": "not given", "remark": "listed apart in the source"}, "[2]": {"conditions": "oral dosing of radiolabeled drug"}}, "data": [{"molecule": "CCC(=O)O[C@]1(C(=O)SCF)[C@H](C)C[C@H]2[C@@H]3C[C@H](F)C4=CC(=O)C=C[C@]4(C)[C@@]3(F)[C@@H](O)C[C@@]21C", "note": "[Fluticasone propionate, S-fluoromethyl-6α,9-difluoro-11β-hydroxy-16α-methyl-3-oxoandrosta-1,4-diene-17β-carbothioate, 17-propionate]", "values": [{"measurement": "solubility in 95% ethanol", "setting": "95% ethanol", "result": "slightly soluble"}, {"measurement": "solubility in dimethyl sulfoxide", "setting": "dimethyl sulfoxide", "result": "freely soluble"}, {"measurement": "solubility in dimethylformamide", "setting": "dimethylformamide", "result": "freely soluble"}, {"measurement": "solubility in methanol", "setting": "methanol", "result": "slightly soluble"}, {"measurement": "solubility in water", "setting": "water", "result": "practically insoluble"}, {"measurement": "oral systemic bioavailability", "setting": "[1]; oral dosing of labeled and unlabeled conventional fluticasone propionate", "result": "< 1", "unit": "%"}, {"measurement": "absorption", "setting": "[1]; [2]", "result": "low"}, {"measurement": "extraction from plasma", "setting": "[1]; [2]", "result": "highly extracted from plasma"}, {"measurement": "oral bioavailability", "setting": "[1]; [2]", "result": "neglible"}]}]}
